Like-named read-outs stand apart in the source and are kept apart here. Where a SMILES comes first, the peptide text is derived from it. Where no end group is shown, it is not given here.
Columns and labels:
[1] = Renal biomarkers or electrolyte imbalance after administration to rats (Table 7); assay type: in vivo
Protocol: NoNO42 was tested for effect on various renal biomarkers or electrolyte imbalance in comparison with nerinetide after administration to rats as shown in Table 7.

[2] = rat, in vivo
Protocol: Blood plasma samples were collected before injection and at 10, 15, 20, 30, 45, 60 min post-dose. Each point represents the mean (±SD) of three animals per group.

[3] = rat, in vivo; for Weight: iv
[4] = molecular target: T1, plasmin (Homo sapiens, UniProt P00747); test: in vitro; conditions: isolated enzyme plasmin
T1 sequence (P00747 581-810 limits assumed, species assumed): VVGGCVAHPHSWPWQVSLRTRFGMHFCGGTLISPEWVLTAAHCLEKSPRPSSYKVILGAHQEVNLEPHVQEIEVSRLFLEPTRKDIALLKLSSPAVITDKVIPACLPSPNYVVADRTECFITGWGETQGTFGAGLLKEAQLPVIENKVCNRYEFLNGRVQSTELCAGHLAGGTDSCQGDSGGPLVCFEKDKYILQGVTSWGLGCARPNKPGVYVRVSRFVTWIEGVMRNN
T1 sequence (P00747 97-580 partner limits assumed, species assumed): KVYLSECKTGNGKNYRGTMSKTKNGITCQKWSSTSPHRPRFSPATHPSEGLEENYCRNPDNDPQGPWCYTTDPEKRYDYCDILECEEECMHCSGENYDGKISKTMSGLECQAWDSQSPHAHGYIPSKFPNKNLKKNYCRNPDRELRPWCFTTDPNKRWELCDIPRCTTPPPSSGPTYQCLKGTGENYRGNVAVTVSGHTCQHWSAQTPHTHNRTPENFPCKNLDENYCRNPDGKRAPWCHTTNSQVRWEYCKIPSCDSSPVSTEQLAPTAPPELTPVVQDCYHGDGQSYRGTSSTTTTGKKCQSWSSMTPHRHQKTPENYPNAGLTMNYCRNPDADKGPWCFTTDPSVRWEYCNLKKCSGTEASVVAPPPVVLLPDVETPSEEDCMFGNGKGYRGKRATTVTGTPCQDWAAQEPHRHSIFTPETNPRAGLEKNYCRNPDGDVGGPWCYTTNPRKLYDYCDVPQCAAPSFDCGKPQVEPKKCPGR

[5] = Plasmin sensitivity: peptides in PBS challenged with 10 ug/ml plasmin, HPLC; conditions: isolated enzyme plasmin
[6] = cited from earlier work
[7] = molecular target: T2, NMDAR2B:PSD-95 complexes (Rattus norvegicus, UniProt P31016); test: Dissociation of NMDAR2B:PSD-95 complexes after 3PVo, immunoprecipitation and Western blotting; assay type: in vivo, Sprague-Dawley rats; conditions: 7.6 mg/kg 1 hr after stroke onset (3PVo), brains harvested 2 h after onset
T2 construct: Cortical stroke areas were collected for analysis; from tissue; host or cells: rat brain cortex (stroke area) after in vivo dosing
T2 sequence (P31016 whole entry, one chain of several): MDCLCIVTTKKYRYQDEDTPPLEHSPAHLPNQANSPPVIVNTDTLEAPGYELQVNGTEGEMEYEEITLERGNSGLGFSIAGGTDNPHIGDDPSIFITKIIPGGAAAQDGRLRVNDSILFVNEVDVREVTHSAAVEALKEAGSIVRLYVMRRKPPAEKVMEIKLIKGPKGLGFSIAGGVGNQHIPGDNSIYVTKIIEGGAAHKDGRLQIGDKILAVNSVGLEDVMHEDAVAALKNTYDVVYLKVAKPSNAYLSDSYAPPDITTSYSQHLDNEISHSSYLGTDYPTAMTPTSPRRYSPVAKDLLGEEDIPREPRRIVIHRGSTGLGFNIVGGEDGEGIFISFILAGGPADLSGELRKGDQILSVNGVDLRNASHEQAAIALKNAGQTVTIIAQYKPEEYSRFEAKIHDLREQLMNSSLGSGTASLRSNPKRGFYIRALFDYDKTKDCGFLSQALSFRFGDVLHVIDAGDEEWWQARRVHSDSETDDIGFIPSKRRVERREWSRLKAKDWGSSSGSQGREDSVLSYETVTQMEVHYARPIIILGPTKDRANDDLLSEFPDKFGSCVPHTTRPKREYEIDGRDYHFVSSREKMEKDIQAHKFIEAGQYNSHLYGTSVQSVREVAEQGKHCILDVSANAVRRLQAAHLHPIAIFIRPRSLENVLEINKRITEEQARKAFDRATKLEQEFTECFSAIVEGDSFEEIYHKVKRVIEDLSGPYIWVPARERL
Protocol: Sprague-Dawley rats were subject to three pial vessel model (3PVo). […] Brains were harvested 2 h after stroke onsets. Cortical stroke areas were collected for analysis. Immunoprecipitations were performed with anti-PSD-95 or anti-NMDAR2B. The amount of PSD-95 and NMDAR2B in samples was analyzed by Western blotting. Reduction in PSD-95-NMDAR2B complex formation was assessed by fold decrease of placebo versus treatment.

[8] = Plasma concentrations 15 minutes post subcutaneous dose (animals of the 3PVO model); assay type: in vivo, rat; conditions: single subcutaneous administration, 2.5, 7.6, 25 mg/kg
Protocol: Unlike transient models of stroke in rats where much lower doses are required for neuroprotection, neuroprotection in 3 pial vessel occlusion models of stroke seems to require plasma concentrations of nerinetide at or above 2 ug/mL (or molar equivalent). […] Although the plasma levels continue to increase through about 3 hours then decrease, it is important to achieve rapid accumulation in the blood and brain for emergency indications like stroke. […] For pharmacokinetic sample analysis, calibration standard samples at concentrations of 0, 2.5, 5, 10, 15, 20 and 40 ug/mL of nerinetide were prepared by spiking 1 μL of the appropriate stock to 100 μL of plasma. […] Data is presented as mean±SD.

[9] = test system: tMCAo; test: Dose range of nerinetide in rat tMCAo model; assay type: in vivo, rats
Protocol: Nerinetide and lodoxamide was administered to rats intravenously as a bolus injection, 60 minutes after tMCAo. […] Bars in A and represent mean±SD, with all individual data points plotted. Asterisks in A indicate P<0.01 when compared to the vehicle group (one-way ANOVA post hoc Tukey's correction for multiple comparisons test) N=12-14 animals/group. […] Significant differences are indicated with an asterisk when compared to the vehicle group (Kruskal-Wallis analysis of variance on ranks with a post-hoc Dunn's correction for multiple comparisons test, *P<0.01). Vehicle: PBS alone. […] Doses up to at least 25 mg/kg were also effective with the highest efficacy being at about 15 mg/kg. The observed wide therapeutic range was attributable to nerinetide, and not to the mast cell degranulation inhibitor lodoxamide, which was present in all solutions to avoid potential hypotension due to histamine release.

[10] = molecular target: tPA (Homo sapiens, UniProt P00750)
Sequence of tPA (P00750 36-562): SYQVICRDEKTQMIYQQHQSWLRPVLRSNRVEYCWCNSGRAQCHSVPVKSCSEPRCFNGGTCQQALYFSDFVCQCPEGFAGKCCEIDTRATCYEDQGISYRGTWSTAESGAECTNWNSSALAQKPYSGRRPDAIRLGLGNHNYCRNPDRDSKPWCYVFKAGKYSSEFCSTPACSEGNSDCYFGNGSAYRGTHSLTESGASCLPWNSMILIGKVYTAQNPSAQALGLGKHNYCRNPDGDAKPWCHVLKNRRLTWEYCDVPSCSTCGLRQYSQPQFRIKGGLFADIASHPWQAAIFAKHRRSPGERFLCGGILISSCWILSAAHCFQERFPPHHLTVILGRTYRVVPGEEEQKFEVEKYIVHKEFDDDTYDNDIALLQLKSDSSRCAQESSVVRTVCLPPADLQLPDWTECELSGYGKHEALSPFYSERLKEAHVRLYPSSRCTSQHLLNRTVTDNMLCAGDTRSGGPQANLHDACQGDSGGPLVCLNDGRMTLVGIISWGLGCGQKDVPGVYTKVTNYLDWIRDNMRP

[11] = human studies, 2.6 mg/kg dose; cited from earlier work
[12] = humans; cited from earlier work
[13] = Weight gain of rats; conditions: IV 7.6 mg/kg
[14] = molecular target: T1, plasmin; assay type: in vitro ADME; set-up: challenged with 10 ug/ml plasmin at 37 C
Source text: Plasmin is a serum protease induced by thrombolytic agents, such as tPA. Plasmin cleavage sites can occur on the C-terminal side of basic amino acids residues in a peptide formed of L-amino acids. NA-1 was digested with plasmin and the products analyzed by mass spectrometry. […] However, cleavage at the other two sites may occur to a lesser extent.

[15] = molecular target: T1, plasmin; assay type: in vitro ADME; set-up: challenged with 10 ug/ml plasmin at 37 C; remark: listed apart in the source
[16] = molecular target: PSD95PDZ2 (Homo sapiens, UniProt P78352); test: Competitive ELISA with biotinylated-NA-1; conditions: PSD-95 domain 2, FIG. 12
Sequence of PSD95PDZ2 (P78352 160-246 limits assumed): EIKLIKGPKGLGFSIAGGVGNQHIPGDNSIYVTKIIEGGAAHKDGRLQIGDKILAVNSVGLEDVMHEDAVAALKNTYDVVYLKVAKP

[17] = Degradation in rat plasma in vitro, alone or with rt-PA or TNK
Source text: (§1) Samples were collected at 6 different time points.
(§2) The experiment was repeated using TNK-tissue plasminogen activator in place of tPA.

[18] = Degradation in human plasma in vitro, alone or with rt-PA or TNK
Source text: as §1, §2

[19] = test system: 3-pial vessel occlusion model of stroke
[20] = molecular target: T1, plasmin; test: Plasmin sensitivity: peptides in PBS challenged with 10 ug/ml plasmin, HPLC
[21] = Pharmacokinetic analysis in rats (subcutaneous, pulmonary instillation, intravenous, intramuscular), HPLC
Protocol: Rats were anaesthetized in the supine position (Isoflurane 1.5--%) and allowed to breath spontaneously in 0.5 L/min 02. The left femoral artery was cannulated for blood sampling.
Test agents were prepared at the stablish concentration in a total volume of vehicle. Pulmonary instillation was performed by intubation with a 14G catheter connected to a 1 cc syringe and the test agent will be delivered through the catheter. Subcutaneous (SQ or SC) injection was injected into the area of the left flank, no more than 2 ml of total volume per site.
Each dose was evaluated in 3 rats for each administration strategy. […] For the first experiment, evaluating two different administration routes (SQ and PI), blood samples were collected at 8 different timepoints: Pre and at 7 additional times (1, 2.5, 5, 10, 15, 30, 60 min) post dose (250 ul/sample).
HPLC quantification: Plasma was separated from blood and stored at −−−80° C. until used. […] Standard curves for HPLC were generated from plasma samples spiked with known quantities of test agent.

[22] = IV bolus with lodoxamide 60 minutes after tMCAo

Compound: CC[C@H](C)[C@H](NC(=O)[C@H](CO)NC(=O)[C@H](CO)NC(=O)[C@H](CC(C)C)NC(=O)[C@@H](CCCCN)NC(=O)[C@H](CCCNC(=N)N)NC(=O)[C@H](CCCNC(=N)N)NC(=O)[C@@H](CCCNC(=N)N)NC(=O)[C@H](CCC(N)=O)NC(=O)[C@@H](CCCNC(=N)N)NC(=O)[C@H](CCCNC(=N)N)NC(=O)[C@H](CCCCN)NC(=O)[C@H](CCCCN)NC(=O)[C@@H](CCCNC(=N)N)NC(=O)CNC(=O)[C@@H](N)Cc1ccc(O)cc1)C(=O)N[C@@H](CCC(=O)O)C(=O)N[C@@H](CO)C(=O)N[C@@H](CC(=O)O)C(=O)N[C@H](C(=O)O)C(C)C [NoNO42] (HELM PEPTIDE1{Y.G.[dR].K.K.R.[dR].Q.[dR].R.R.[dK].L.S.S.I.E.S.D.V}$$$$V2.0; N-terminus and C-terminus assumed)
- renal biomarkers or electrolyte imbalance in comparison with nerinetide ([1]; rat, in vivo): No significant difference was observed
- Creatinine ([1]; rat, in vivo, iv, 3.8 mg/kg): 0.2 mg/dL
- iCa ([1]; rat, in vivo, iv, 5.7 mg/kg): 1.47 mmol/L
- Creatinine ([1]; rat, in vivo, iv, 7.6 mg/kg): 0.2 mg/dL
- tCO2 ([1]; rat, in vivo, iv, 7.6 mg/kg): 33.7 mmol/L
- Na+ ([1]; rats, IV 3.8 mg/kg, Day 4): 137.3 mmol/L
- Cl ([1]; rats, IV 3.8 mg/kg, Pre): 98.3 mmol/L
- iCa ([1]; rats, IV 3.8 mg/kg, Pre): 1.43 mmol/L
- Na+ ([1]; rats, IV 5.7 mg/kg, Day 4): 137.3 mmol/L
- iCa ([1]; rats, IV 5.7 mg/kg, Day 14): 1.46 mmol/L
- iCa ([1]; rats, IV 5.7 mg/kg, Pre): 1.46 mmol/L
- iCa ([1]; rats, IV 7.6 mg/kg, Day 4): 1.46 mmol/L
- tCO2 ([1]; rats, IV 7.6 mg/kg, Day 4): 35.7 mmol/L
- Cl ([1]; rats, IV 7.6 mg/kg, Day 14): 98.3 mmol/L
- Hgb ([1]; rats, IV 7.6 mg/kg, Day 14): 13.4 g/dL
- Na+ ([1]; rats, IV 7.6 mg/kg, Day 14): 137.3 mmol/L
- tCO2 ([1]; rats, IV 7.6 mg/kg, Day 14): 35.7 mmol/L
- CMax of NoNO42 5.7 mg/kg versus nerinetide 7.6 mg/kg [2]: same CMax
- weight gain compared with nerinetide [3]: No significant difference was seen
- Weight ([3]; 3.8 mg/kg): 342.3 grams
- Weight ([3]; 5.7 mg/kg): 341.7 grams
- Weight ([3]; 7.6 mg/kg): 331.0 grams
- remaining at 0.5 h, 65 ug/ml [4]: ~100%

Compound: CC[C@H](C)[C@H](NC(=O)[C@H](CO)NC(=O)[C@H](CO)NC(=O)[C@H](CC(C)C)NC(=O)[C@H](CCCCN)NC(=O)[C@H](CCCNC(=N)N)NC(=O)[C@@H](CCCNC(=N)N)NC(=O)[C@H](CCCNC(=N)N)NC(=O)[C@H](CCC(N)=O)NC(=O)[C@@H](CCCNC(=N)N)NC(=O)[C@H](CCCNC(=N)N)NC(=O)[C@H](CCCCN)NC(=O)[C@@H](CCCCN)NC(=O)[C@H](CCCNC(=N)N)NC(=O)CNC(=O)[C@@H](N)Cc1ccc(O)cc1)C(=O)N[C@@H](CCC(=O)O)C(=O)N[C@@H](CO)C(=O)N[C@@H](CC(=O)O)C(=O)N[C@H](C(=O)O)C(C)C [NA-4.4.3] (HELM PEPTIDE1{Y.G.R.[dK].K.R.[dR].Q.R.[dR].R.K.L.S.S.I.E.S.D.V}$$$$V2.0; N-terminus and C-terminus assumed)
- remaining at 0.5 h, 65 ug/ml [5]: > 85%

Compound: N[C@@H](Cc1ccc(O)c(O)c1)C(=O)O [Levodopa]
- half-life [6]: 1.5 h

Compound: YGRKKRRQRRRKLSSIESDV [NA-1, reference compound]
- dissociation of preformed NMDAR2B:PSD-95 complexes [7]: able to dissociate preformed NMDAR2B:PSD-95 complexes
- relation between treatment dose and Cmax [8]: dose proportionality between the treatment dose and the Cmax
- dose of highest efficacy [9, 22]: about 15 mg/kg
- doses up to which nerinetide was effective [9, 22]: at least 25 mg/kg
- lowest dose producing significant reduction in infarct volume and improvement in neurological function ([9]; IV bolus with lodoxamide 60 minutes after tMCAo, 24 hours): 0.25 mg/kg
- effective dosage range (reducing infarction size and neurologic deficit) ([9]; rat tMCAo model, at least this range): 0.25-25 mg/kg
- Anion Gap ([1]; rats, IV 7.6 mg/kg, Day 4): 7.3 mmol/L
- BUN ([1]; rats, IV 7.6 mg/kg, Day 4): 13.7 mg/dL
- Cl ([1]; rats, IV 7.6 mg/kg, Day 4): 100.7 mmol/L
- Creatinine ([1]; rats, IV 7.6 mg/kg, Day 4): 0.2 mg/dL
- Glucose ([1]; rats, IV 7.6 mg/kg, Day 4): 178.0 mg/dL
- Hct ([1]; rats, IV 7.6 mg/kg, Day 4): 39% ± % PCV
- Hgb ([1]; rats, IV 7.6 mg/kg, Day 4): 13.4 g/dL
- K+ ([1]; rats, IV 7.6 mg/kg, Day 4): 4.8 mmol/L
- Na+ ([1]; rats, IV 7.6 mg/kg, Day 4): 137.3 mmol/L
- iCa ([1]; rats, IV 7.6 mg/kg, Day 4): 1.43 mmol/L
- tCO2 ([1]; rats, IV 7.6 mg/kg, Day 4): 35.0 mmol/L
- Anion Gap ([1]; rats, IV 7.6 mg/kg, Day 14): 9.0 mmol/L
- BUN ([1]; rats, IV 7.6 mg/kg, Day 14): 16.7 mg/dL
- Cl ([1]; rats, IV 7.6 mg/kg, Day 14): 98.3 mmol/L
- Creatinine ([1]; rats, IV 7.6 mg/kg, Day 14): 0.2 mg/dL
- Glucose ([1]; rats, IV 7.6 mg/kg, Day 14): 253.3 mg/dL
- Hct ([1]; rats, IV 7.6 mg/kg, Day 14): 38% ± % PCV
- Hgb ([1]; rats, IV 7.6 mg/kg, Day 14): 13.0 g/dL
- K+ ([1]; rats, IV 7.6 mg/kg, Day 14): 4.4 mmol/L
- Na+ ([1]; rats, IV 7.6 mg/kg, Day 14): 136.7 mmol/L
- iCa ([1]; rats, IV 7.6 mg/kg, Day 14): 1.45 mmol/L
- tCO2 ([1]; rats, IV 7.6 mg/kg, Day 14): 34.3 mmol/L
- Anion Gap ([1]; rats, IV 7.6 mg/kg, Pre): 7.3 mmol/L
- BUN ([1]; rats, IV 7.6 mg/kg, Pre): 15.0 mg/dL
- Cl ([1]; rats, IV 7.6 mg/kg, Pre): 98.0 mmol/L
- Creatinine ([1]; rats, IV 7.6 mg/kg, Pre): 0.2 mg/dL
- Glucose ([1]; rats, IV 7.6 mg/kg, Pre): 251.7 mg/dL
- Hct ([1]; rats, IV 7.6 mg/kg, Pre): 38% ± % PCV
- Hgb ([1]; rats, IV 7.6 mg/kg, Pre): 13.0 g/dL
- K+ ([1]; rats, IV 7.6 mg/kg, Pre): 4.8 mmol/L
- Na+ ([1]; rats, IV 7.6 mg/kg, Pre): 135.7 mmol/L
- iCa ([1]; rats, IV 7.6 mg/kg, Pre): 1.46 mmol/L
- tCO2 ([1]; rats, IV 7.6 mg/kg, Pre): 35.7 mmol/L
- degradation, control treatment with tPA [10]: no degradation
- direct cleavage by tPA or TNK [10]: Neither tPA nor TNK directly cleaves NA-1
- effective plasma concentration [11]: ~10 µg/mL
- doses at which drops in blood pressure have been observed [12]: above 3.75 mg/kg
- Weight ([13]; Day 4): 368.0 grams
- Weight ([13]; Day 14): 420.0 grams
- Weight ([13]; Pre): 360.3 grams
- plasmin cleavage sites [14]: cleavage at seven of nine potential sites
- degradation on treatment with plasmin [15]: rapidly degraded
- EC50 (compared between peptides) [16]: about the same within experimental error
- degradation with coadministration of TNK ([17]; rat plasma (FIG. 8)): rapid degradation
- NA-1 content decay with tPA versus NA-1 alone ([17]; rat plasma in vitro, NA-1 65 ug/mL, rt-PA 22.5-135 ug/mL): decayed much more rapidly when tPA was co-administered
- time to decay to zero ([17]; rat plasma in vitro, treated with tPA): ≤ 15 min
- degradation with coadministration of TNK ([18]; human plasma (FIG. 7)): rapid degradation
- NA-1 content decay with tPA versus NA-1 alone ([18]; human plasma in vitro, NA-1 65 ug/mL, rt-PA 22.5-135 ug/mL): decayed much more rapidly when tPA was co-administered
- infarct volume compared to placebo ([19]; 7.6 mg/kg subcutaneous bolus 60 minutes after onset of stroke): failed to achieved infarct volume reduction
- infarct volume compared to placebo ([19]; 25 mg/kg subcutaneous bolus 60 minutes after onset of stroke): significant reduction in infarct volume
- plasma concentration required for neuroprotection ([19]; 3 pial vessel occlusion models of stroke): ≥ 2 µg/mL
- time to degradation ([20]; 10 ug/mL plasmin (FIG. 29)): ≤ 5 min
- degradation by plasmin ([20]; about 65 ug/ml peptide in PBS, 10 ug/ml plasmin, 37 C, HPLC): completely degraded in about five minutes
- AUC versus intravenous NA-1 ([21]; intramuscular): somewhat higher
- CMax versus intravenous NA-1 ([21]; intramuscular): lower
- half-life versus intravenous NA-1 ([21]; intramuscular): higher
- AUC versus the same dose of intravenous NA-1 ([21]; subcutaneous): somewhat lower
- CMax versus the same dose of intravenous NA-1 ([21]; subcutaneous): much lower
- half-life versus intravenous NA-1 ([21]; subcutaneous): longer
